According to US20200188297A1, “LXR Agonist in Topical Ophthalmic Formulation for Treatment of Dry-Eye Disorder” (eyeNOS, Inc., priority 2018, published 2020):
pEC50: −log10 of the molar value. Like-named read-outs stand apart in the source and are kept apart here.

Experiments:
[1] = system: human corneal epithelial (HCE-T) cells; experiment: ZO-1 immunocytochemistry (barrier function) under hyperosmolar stress; type: cell-based; conditions: 0.05 μM in DMSO, pre-treated one hour; 50 mM NaCl overnight; FIG. 20
Method: The corneal epithelium serves as a physiological barrier. However, inflammation and the ensuing oxidative stress can impair barrier function and contribute to the exacerbation of inflammatory processes and increase susceptibility to other ocular surface conditions, such as corneal keratitis. The effect of ouabagenin on the barrier function of human corneal epithelial (HCE-T) cells was tested in in-vitro experiments. The cells were seeded at 25,000 cells/well in 8-chamber slides. Cells were incubated for 3 days at 37° C. until confluent. Cells were pre-treated with DMSO (vehicle) or ouabagenin (0.05 μM in DMSO). One hour later, cells received treatment of 0 (media), 25, 50, or 75 mM NaCl to mimic hyperosmolar conditions. Cells were incubated overnight at 37° C.
Zona occludens 1 (ZO-1) is a tight junction protein that is involved in the barrier function of corneal epithelium. The presence of ZO-1 (or absence thereof) is an indicator of the health of this barrier. In this experiment, immunocytochemistry for ZO-1 was performed on the HCE-T cells after the overnight incubation. Slides were imaged under a fluorescent microscope.

[2] = system: liver X receptors (LXRα, LXRβ); conditions: cited from earlier work
[3] = system: human corneal epithelial cells (HCE-T); experiment: Multiplex cytokine expression analysis, hyperosmolar stress insult; type: cell-based; conditions: 200 nM, preincubation 1 hour, 600 mOsm for 20 hours
Method: The anti-inflammatory effects of T0901317 were studied on in-vitro cell culture of human corneal epithelial cells (HCE-T). HCE-T cells were grown in DMEM/F12 (1:1), 5% fetal bovine serum, penicillin-streptomycin, […] insulin, 10 ng/ml human recombinant epidermal growth factor and 0.5% dimethyl sulfoxide in 5% CO2 at 37° C. To simulate dry-eye conditions, the cells were exposed to hyperosmolar stress insult as described in Chen et al, “Hyperosmolarity-Induced Cornification of Human Corneal Epithelial Cells Is Regulated by JNK MAPK” (February 2008) Investigative Ophthalmology & Visual Science, 49(2):539-549. Confluent HCE-T were passaged into 12-well plates containing KSFM media (keratinocyte-SFM media) for 24 hours, and then NaCl was added to wells in concentrations to produce media osmolarities in the range of 350-800 mOsm. Multiplex cytokine expression analysis was performed to determine the anti-inflammatory effects of T0901317 (at 200 nM).

[4] = system: human corneal epithelial cells (HCE-T); experiment: Multiplex cytokine expression analysis, LPS-induced secretion; type: cell-based; conditions: LPS 10 ng/ml, preincubation with compound
Method: The anti-inflammatory effects of T0901317 were studied on in-vitro cell culture of human corneal epithelial cells (HCE-T). […] Multiplex cytokine expression analysis was performed to determine the anti-inflammatory effects of T0901317 (at 200 nM). […] Lipopolysaccharide (LPS)-induced (10 ng/ml) secretion of IL-17, IL-18, and IFNγ was also examined. […] Topical application is not expected to result in activation of the pregnane X receptor (PXR), supporting the notion that the anti-inflammatory effects observed here, both in-vivo and in-vitro, can be attributed to LXR activation.

retinoid X receptor = conditions: read-out: EC50 for activation of the retinoid X receptor; cited from earlier work

| Structure (SMILES) | ZO-1 at the cell junctions (barrier function) [1] | LXR subtype selectivity ([2]; literature reports) | hyperosmolar stress-induced secretion of IL-12 ([3]; FIG. 19B) | hyperosmolar stress-induced secretion of IL-17 ([3]; FIG. 19C) | LPS-induced secretion of IL-17 ([4]; FIG. 19D) | LPS-induced secretion of IL-18 ([4]; FIG. 19E) | LPS-induced secretion of IFNγ ([4]; FIG. 19F) | pEC50 (retinoid X receptor) | LXR subtype selectivity [2] |
| --- | --- | --- | --- | --- | --- | --- | --- | --- | --- |
| C[C@]12C[C@@H](O)[C@H]3[C@@H](CC[C@]4(O)C[C@@H](O)C[C@@H](O)[C@]34CO)[C@@]1(O)CC[C@@H]2C1=CC(=O)OC1 [ouabagenin] | protected against this loss of ZO-1 barrier function | LXRβ-subtype specific agonist | – | – | – | – | – | – | – |
| O=S(=O)(c1ccccc1)N(CC(F)(F)F)c1ccc(C(O)(C(F)(F)F)C(F)(F)F)cc1 [T0901317] | – | – | fully suppressed | fully suppressed | suppressed | suppressed | suppressed | 5.30 | selective for the LXRα subtype |
